Square brackets hold non-standard residues; d marks the D form. Peptide text beside a SMILES is read from it. NMeY = CN[C@@H](Cc1ccc(O)cc1)C(=O)O; NMeF = CN[C@@H](Cc1ccccc1)C(=O)O
system: acute pain caused by photothermal therapy in male mice of Kunming strain; experiment: Mouse photothermal tail flick analgesia experiment; assay type: in vivo; details: lateral ventricle injection
Description: After the drug was injected into the lateral ventricle, intrathecal, subcutaneous, and intraperitoneal, the modulating activity on pain was measured by the photothermal tail flick test in mouse.
In the lateral ventricle administration, the lateral ventricle tube-buried surgery of the mouse should be performed in advance to ensure the accuracy of the drug injection site. A brain stereotaxic instrument was used in the lateral ventricle tube-buried surgery of the mouse. Male mice of Kunming strain, weighing 21±2 g; brain stereotaxic instrument is Jiangwan I. After the mice were anesthetized with sodium pentobarbital (i.p., 80 mg/kg mouse body weight), the hair in the head surgery area of the mouse was cut off and the mouse was placed on the brain stereotactic instrument and fixed. The surgery area was disinfected with iodophor, the scalp was opened along the sagittal suture to reveal the skull and the position of the anterior fontanelle can be found. 3 mm backward and 1 mm left/right from the anterior fontanelle, the upper position of the lateral ventricle can be found. A self-made stainless steel tube (a section of 24-gauge, which is connected to a small section of PE-10 tube) is inserted 3 mm downward according to the above position, which is the lateral ventricle. A section of stainless steel string (28-gauge) is inserted into the above-mentioned steel tube to prevent cerebrospinal fluid spillage and foreign matter infection and block the steel pipe. The steel tube is fixed with medical dental powder and glue, and after solidification, the wound is sutured. After the surgery, the mice were recovered tier 4 days, and the follow-up experiment was started on the 5th day. Surgical instruments, stainless steel tubes, etc. involved in the experiment need to be disinfected before the surgery. The mouse lateral ventricle was injected with 4 μl of the drug each time, and then the steel tube was rinsed with 1 μl of physiological saline.
Spinal cord level administration is performed by intrathecal injection in conscious mice, and the specific procedure is described in the method reported by Hylden and Wilcox (Eur. J. Pharmacol. 1980, 67: 313). A 25 μL microinjector was inserted directly into the subarachnoid space between L5 and L6.
The intraperitoneal administration was directly injected using a 1 mL syringe at an injection volume of 10 μl/g body weight. At the time of injection, the mouse was held by left hand with their abdomen facing up and the head was at low position while the tail was at high position. The side of the midline of the abdomen was taken, the needle hole of the syringe was upward, the needle tip penetrates into the skin in a direction less than 20 degrees, the needle tip was slightly pushed in the direction of the mouse head and sticking abdominal wall, and then punctures into the abdominal cavity in the direction of 45 degrees, and was withdrawn to confirm that it has not been pierced into the blood vessel or the intestine, afterwards the drug solution is slowly pushed out.
Subcutaneous injection was also administered directly using a 1 mL syringe in an injection volume of 10 μl/g body weight. At the time of injection, the neck and tail of the mouse were fixed in the left hand, and the head and body were inclined downward at 45 degrees. The needle hole of the syringe is upward, the needle tip is slowly pierced into the skin on the right side of the back center line at an angle of less than 20 degrees, and the needle tip is lightly picked up to confirm that there is no piercing, afterwards the drug solution is slowly pushed out.
Male mice of Kunming strain were used to detect the effects of drugs on pain perception using a photothermal tail flick instrument. The ambient temperature is controlled at 22±1° C., and the experimental animals are free to eat and drink. The basic tail flick incubation period (3-5 seconds) was determined prior to administration, and mice that were too sensitive or dull were discarded. […]

Row | SMILES | ED50 value (nmol) (95% confidence interval), analgesic activity
1 | CN[C@@H](Cc1ccc(O)cc1)C(=O)N[C@H](C)C(=O)NCC(=O)N[C@@H](Cc1ccccc1)C(=O)N[C@@H](CCC(N)=O)C(=O)N1CCC[C@H]1C(=O)N[C@@H](CCC(N)=O)C(=O)N[C@@H](CCCNC(=N)N)C(=O)N[C@@H](Cc1ccccc1)C(N)=O [Compound 1] (H-[NMeY][dA]GFQPQRF-NH2) | 1.2980 (1.2000 to 1.4050) nmol
2 | C[C@@H](NC(=O)[C@@H](N)Cc1ccc(O)cc1)C(=O)NCC(=O)N(C)[C@@H](Cc1ccccc1)C(=O)N[C@@H](CCC(N)=O)C(=O)N1CCC[C@H]1C(=O)N[C@@H](CCC(N)=O)C(=O)N[C@@H](CCCNC(=N)N)C(=O)N[C@@H](Cc1ccccc1)C(N)=O [Compound 2, Tyr-D-Ala-Gly-NMe-Phe-Gln-Pro-Gln-Arg-Phe-NH2] (H-Y[dA]G[NMeF]QPQRF-NH2) | 0.3862 (0.3590 to 0.4154) nmol
3 | C[C@@H](NC(=O)[C@@H](N)Cc1ccc(O)cc1)C(=O)NCC(=O)N[C@@H](Cc1ccccc1)C(=O)NCC(=O)N1CCC[C@H]1C(=O)N[C@@H](CCC(N)=O)C(=O)N[C@@H](CCCNC(=N)N)C(=O)N[C@@H](Cc1ccccc1)C(N)=O [Compound 3] (H-Y[dA]GFGPQRF-NH2) | 0.4172 (0.3798 to 0.4583) nmol
4 | CC(C)C[C@H](NC(=O)[C@H](Cc1ccccc1)NC(=O)CNC(=O)[C@@H](C)NC(=O)[C@@H](N)Cc1ccc(O)cc1)C(=O)N1CCC[C@H]1C(=O)N[C@@H](CCC(N)=O)C(=O)N[C@@H](CCCNC(=N)N)C(=O)N[C@@H](Cc1ccccc1)C(N)=O [Compound 4] (H-Y[dA]GFLPQRF-NH2) | 0.1865 (0.1509 to 0.2304) nmol
5 | CSCC[C@H](NC(=O)[C@H](Cc1ccccc1)NC(=O)CNC(=O)[C@@H](C)NC(=O)[C@@H](N)Cc1ccc(O)cc1)C(=O)N1CCC[C@H]1C(=O)N[C@@H](CCC(N)=O)C(=O)N[C@@H](CCCNC(=N)N)C(=O)N[C@@H](Cc1ccccc1)C(N)=O [Compound 5] (H-Y[dA]GFMPQRF-NH2) | 0.2957 (0.2637 to 0.3338) nmol
6 | CSCC[C@@H](NC(=O)[C@H](Cc1ccccc1)NC(=O)CNC(=O)[C@@H](C)NC(=O)[C@@H](N)Cc1ccc(O)cc1)C(=O)N1CCC[C@H]1C(=O)N[C@@H](CCC(N)=O)C(=O)N[C@@H](CCCNC(=N)N)C(=O)N[C@@H](Cc1ccccc1)C(N)=O [Compound 6, Tyr-D-Ala-Gly-Phe-D-Met-Pro-Gln-Arg-Phe-NH2] (H-Y[dA]GF[dM]PQRF-NH2) | 0.3986 (0.3716 to 0.4275) nmol
7 | CC(C)C[C@@H](NC(=O)[C@H](Cc1ccccc1)NC(=O)CNC(=O)[C@@H](C)NC(=O)[C@@H](N)Cc1ccc(O)cc1)C(=O)N1CCC[C@H]1C(=O)N[C@@H](CCC(N)=O)C(=O)N[C@@H](CCCNC(=N)N)C(=O)N[C@@H](Cc1ccccc1)C(N)=O [Compound 7, Tyr-D-Ala-Gly-Phe-D-Leu-Pro-Gln-Arg-Phe-NH2] (H-Y[dA]GF[dL]PQRF-NH2) | 0.4367 (0.3865 to 0.4934) nmol
8 | C[C@@H](NC(=O)[C@@H](N)Cc1ccc(O)cc1)C(=O)NCC(=O)N[C@@H](Cc1ccccc1)C(=O)N[C@H](C)C(=O)N1CCC[C@H]1C(=O)N[C@@H](CCC(N)=O)C(=O)N[C@@H](CCCNC(=N)N)C(=O)N[C@@H](Cc1ccccc1)C(N)=O [Compound 8, Tyr-D-Ala-Gly-Phe-D-Ala-Pro-Gln-Arg-Phe-NH2] (H-Y[dA]GF[dA]PQRF-NH2) | 0.3361 (0.2864 to 0.3944) nmol

Reference: US11167006B2 (Shanghai Tianci Life Science Development Co., Ltd., priority 2016, dated 2021)
